Data: patent US12595478B2, “Crispr-Cas systems having destabilization domain” (THE BROAD INSTITUTE, INC., priority 2016, dated 2026)

Key:
[1] = biological target: ER50.MS2.p65.HSF1 (Homo sapiens, UniProt P03372, G521R/L384M/M421G/N519S/T371A/Y537S); settings: targeted to ASCL1; increasing concentrations of 40HT, 18 h, qPCR
Text: Multidimensional ‘chemical’ control of endogenous transcript levels. […] DHFR.PP7.VP64 was targeted to ILIRN, and ER50.MS2.p65.HSF1 was targeted to ASCL1. […] Error bars represent s.e.m. from biological replicates (n=3; a,c) or ±s.d. across technical replicates (n=4; b,d).

[2] = biological target: engineered Cas9-SAM system comprising a DD (ER50) (Homo sapiens, UniProt P03372, G521R/L384M/M421G/N519S/T371A/Y537S); settings: ligand 4HT
[3] = tested on: engineered Cas9 system comprising a functionalized guide with DHFR destabilization domain; assay: Induction of ASCL1 mRNA by engineered DD-Cas9 SAM with stabilizing ligand (FIG. 11); assay type: cell-based; settings: cells transiently transfected with DD-Cas9 SAM, treated with stabilizing ligand
Procedure: FIG. 11. […] Cells were transiently transfected with engineered DD-Cas9 SAM and ASCL1 mRNA was measured. Compared to untransfected cells, DD-Cas9-SAM induced expression of ASCL1 mRNA is observed.

[4] = biological target: ER50.SaCas9.ER50 (Homo sapiens, UniProt P03372, G521R/L384M/M421G/N519S/T371A/Y537S); settings: cells expressing ER50.SaCas9.ER50 treated with 40HT
Text: Assessment of dose-responsiveness of DD-regulated SaCas9 gene editing activity.

[5] = tested on: ER50.Cas9.ER50; assay: Cas9-mediated eGFP knockout (eGFP disruption) in U20S.eGFP-PEST cells nucleofected with ER50.Cas9.ER50; assay type: cell-based; settings: increasing concentrations 0.5-1000 nM, 48 h
Text: FIG. 3A-3B. […] (a) Representative images of conditional control of Cas9-mediated eGFP knockout in U20S.eGFP-PEST cells. […] Error bars represent standard deviation from biological replicates (n=6).

[6] = tested on: human FKBP12; settings: FKBP12 mutant DD; cited from earlier work
[7] = tested on: DHFR-SpCas9-DHFR
[8] = tested on: Drosophila; assay: TMP-controlled gene drive in Drosophila for green body color; assay type: in vivo; settings: in the presence of TMP, wt Cas9 for comparison, DMSO control ~50% (Mendelian inheritance)
[9] = tested on: DHFR; assay: Binding of photocaged TMP derivative to DHFR; settings: before exposure to light (NVOC group attached)
[10] = tested on: temperature-sensitive mutant of mammalian DHFR (DHFRts); settings: cells expressing DHFRts; cited from earlier work
[11] = tested on: human embryonic stem cells (hESCs); assay: Mutagenic NHEJ by double nickase in human embryonic stem cells; assay type: cell-based; settings: Cas9-D10A and two gRNAs targeted to different strands at the same location, data not shown
Text: In some embodiments, a vector comprises a regulatory element operably linked to an enzyme-coding sequence encoding a CRISPR protein (i.e. CRISPR/Cas system effector or CRISPR effector). […] The CRISPR enzyme is Cas9, and may be Cas9 from S. pyogenes or S. pneumoniae. In some embodiments, the CRISPR enzyme directs cleavage of one or both strands at the location of a target sequence, such as within the target sequence and/or within the complement of the target sequence. In some embodiments, the CRISPR enzyme directs cleavage of one or both strands within about 1, 2, 3, 4, 5, 6, 7, 8, 9, 10, 15, 20, 25, 50, 100, 200, 500, or more base pairs from the first or last nucleotide of a target sequence. In some embodiments, a vector encodes a CRISPR enzyme that is mutated to with respect to a corresponding wild-type enzyme such that the mutated CRISPR enzyme lacks the ability to cleave one or both strands of a target polynucleotide containing a target sequence. […] In some embodiments, a Cas9 nickase may be used in combination with guide sequenc(es), e.g., two guide sequences, which target respectively sense and antisense strands of the DNA target. This combination allows both strands to be nicked and used to induce NHEJ.

[12] = tested on: dystrophin; settings: average, across 48 weeks; cited from earlier work

engineered Cas9-SAM system comprising a DD (ER50), sequence (P03372 305-549 T371A/L384M/M421G/N519S/G521R/Y537S limits assumed): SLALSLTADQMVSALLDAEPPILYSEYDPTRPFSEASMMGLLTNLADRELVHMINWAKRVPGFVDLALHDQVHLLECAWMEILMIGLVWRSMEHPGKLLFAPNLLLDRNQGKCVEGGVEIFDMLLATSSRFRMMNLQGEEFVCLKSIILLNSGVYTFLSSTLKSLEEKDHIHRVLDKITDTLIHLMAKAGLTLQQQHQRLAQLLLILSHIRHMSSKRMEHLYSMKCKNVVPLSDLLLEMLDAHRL
ER50.SaCas9.ER50, sequence (P03372 305-549 T371A/L384M/M421G/N519S/G521R/Y537S limits assumed): as above
ER50.MS2.p65.HSF1, sequence (P03372 with tags, fused parts or gaps T371A/L384M/M421G/N519S/G521R/Y537S limits assumed): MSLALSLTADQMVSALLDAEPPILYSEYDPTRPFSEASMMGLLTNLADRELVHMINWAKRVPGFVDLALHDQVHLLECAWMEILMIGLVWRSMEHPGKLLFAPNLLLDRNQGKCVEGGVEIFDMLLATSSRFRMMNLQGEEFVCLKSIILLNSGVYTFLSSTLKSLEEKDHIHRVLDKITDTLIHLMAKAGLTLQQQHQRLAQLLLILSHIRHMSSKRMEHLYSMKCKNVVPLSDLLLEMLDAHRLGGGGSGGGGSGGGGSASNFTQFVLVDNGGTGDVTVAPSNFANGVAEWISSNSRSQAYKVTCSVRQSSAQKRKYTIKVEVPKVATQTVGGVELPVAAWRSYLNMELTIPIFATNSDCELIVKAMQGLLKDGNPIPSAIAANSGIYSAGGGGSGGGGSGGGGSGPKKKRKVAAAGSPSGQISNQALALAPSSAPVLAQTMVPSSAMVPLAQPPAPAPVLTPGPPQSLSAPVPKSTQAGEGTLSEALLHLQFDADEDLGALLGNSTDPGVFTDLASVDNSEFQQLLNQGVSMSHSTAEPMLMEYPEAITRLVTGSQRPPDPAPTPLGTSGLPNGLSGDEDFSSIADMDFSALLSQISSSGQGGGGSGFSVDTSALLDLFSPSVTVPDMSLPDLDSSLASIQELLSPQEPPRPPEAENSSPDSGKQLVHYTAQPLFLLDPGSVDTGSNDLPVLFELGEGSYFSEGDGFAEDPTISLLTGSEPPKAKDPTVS

Compound: 4-hydroxytamoxifen [40HT]
- endogenous gene upregulation (dose response) [1]: Highly dose-responsive
- SAM-dependent expression of ASCL1 mRNA [2]: Increased
- ASCL1 mRNA [3]: significant increase
- nuclease activity (indel activity, Surveyor assay) [4]: dose dependent increase
- genome editing (dosability) [5]: High dosability

Compound: CC[C@H](C(=O)N1CCCC[C@H]1C(=O)O[C@H](CCc1ccc(OC)c(OC)c1)c1cccc(OCCN2CCOCC2)c1)c1cc(OC)c(OC)c(OC)c1 [Shield-1]
- binding to and stabilization of the DD [6]: dose-dependent manner

Compound: COc1cc(Cc2cnc(N)nc2N)cc(OC)c1OC [TMP, trimethoprim]
- SpCas9-mediated knockout of the ebony gene ([7]; TMP dose dependence): Dose-dependent
- time post TMP removal from the fly food within which % ebony knockout is lowered ([7]; TMP removal from the fly food): ≤ 24 h
- inheritance of the green-body color [8]: 84%

Compound: COc1cc(COC(=O)Nc2ncc(Cc3cc(OC)c(OC)c(OC)c3)c(N)n2)c([N+](=O)[O-])cc1OC [TMP-NVOC]
- binding to DHFR [9]: prevents photocaged TMP-NVOC from binding to DHFR

Compound: CN(Cc1cnc2nc(N)nc(N)c2n1)c1ccc(C(=O)N[C@@H](CCC(=O)O)C(=O)O)cc1 [methotrexate]
- degradation of DHFRts [10]: inhibited degradation of the protein partially

Compound: double nickase: Cas9-D10A and two gRNAs targeted to different strands at the same location
- efficiency of inducing mutagenic NHEJ relative to nuclease (regular Cas9 without D10 mutation) [11]: about 50%

Compound: eteplirsen
- dystrophin positive fibers compared to baseline [12]: 47%
